Test results from patent US12643887B2, “Heterocyclic derivatives with cardiomyocyte proliferation activity for treatment of heart diseases” (Tongji University, priority 2019, dated 2026).

Molecular target: T1, human HIPK2 (Homo sapiens, UniProt Q9H2X6)
T1 construct: Recombinant human HIPK2 (1-640); GST (N); purchased SignalChem H04-11BG; host or cells: Sf9 insect cells
Test: HIPK2 enzyme assay (ADP-Glo)
Format: biochemical
Details: ADP-Glo, ATP 5 μM; read-out: HIPK2 IC50
Description: The ability of compounds to inhibit human HIPK2 kinase activities was determined using a commercially available ADP-Glo™ Kinase Assay kit (Promega, Cat #V9102) according to the manufacturer's protocol.
Recombinant human HIPK2 (1-640) (expressed in Sf9 insect cells with an N-terminal GST tag) was purchased from SignalChem (Cat #H04-11BG). Recombinant full length human MBP (expressed in E. Coli cells with an N-terminal GST tag) was purchased from SignalChem (Cat #M42-54G). This assay, run in a 384-well plate format, is a generic method for measuring kinase activities using an ADP-Glo Kinase Assay Kit. The basic assay procedure involves two steps: (1) Enzymatic step: inhibitors are incubated with the kinase and then ATP (included in the ADP-Glo Kinase Assay Kit) and the MBP protein are added to start the enzymatic reaction; (2) Detection step: after the kinase reaction, first ADP-Glo™ Reagent is added to terminate the kinase reaction and deplete the remaining ATP. Second, the Kinase Detection Reagent is added to simultaneously convert ADP to ATP and allow the newly synthesized ATP to be measured using a luciferase/luciferin reaction. The light generated is measured using a luminometer.
Briefly, HIPK2 (1 nM) in the enzymatic buffer solutions (40 mM Tris, pH 7.5, 20 mM MgCl2, 0.1 mg/ml BSA, 50 μM DTT) were mixed with various concentrations of inhibitors (dissolved in 100% DMSO). These solutions were incubated for 30 minutes at 25° C., and subsequently a mixture of substrate peptide and ATP was added with the final peptide and ATP concentrations at 0.05 mg/ml and 5 μM, respectively. The final reaction mixture of enzyme-substrate-ATP-compound was incubated for 90 minutes at 25° C.
Afterwards ADP-Glo™ Reagent was added and the mixture was incubated at 25° C. for 60 minutes. Then Kinase Detection Reagent was added, and the final mixture was incubated at 25° C. for 60 minutes. The luminescence signal of the final solution was measured on an Envision instrument (PerkinElmer). The percent (%) inhibition at each concentration of a compound is calculated relative to the luminescence signal in the Max and Min control wells contained within each assay plate. […] The concentrations and percent inhibition values for a test compound are plotted and the concentration of the compound required to achieve 50% inhibition (IC50) is determined with a four-parameter logistic dose response equation.

T1 sequence (Q9H2X6 1-640): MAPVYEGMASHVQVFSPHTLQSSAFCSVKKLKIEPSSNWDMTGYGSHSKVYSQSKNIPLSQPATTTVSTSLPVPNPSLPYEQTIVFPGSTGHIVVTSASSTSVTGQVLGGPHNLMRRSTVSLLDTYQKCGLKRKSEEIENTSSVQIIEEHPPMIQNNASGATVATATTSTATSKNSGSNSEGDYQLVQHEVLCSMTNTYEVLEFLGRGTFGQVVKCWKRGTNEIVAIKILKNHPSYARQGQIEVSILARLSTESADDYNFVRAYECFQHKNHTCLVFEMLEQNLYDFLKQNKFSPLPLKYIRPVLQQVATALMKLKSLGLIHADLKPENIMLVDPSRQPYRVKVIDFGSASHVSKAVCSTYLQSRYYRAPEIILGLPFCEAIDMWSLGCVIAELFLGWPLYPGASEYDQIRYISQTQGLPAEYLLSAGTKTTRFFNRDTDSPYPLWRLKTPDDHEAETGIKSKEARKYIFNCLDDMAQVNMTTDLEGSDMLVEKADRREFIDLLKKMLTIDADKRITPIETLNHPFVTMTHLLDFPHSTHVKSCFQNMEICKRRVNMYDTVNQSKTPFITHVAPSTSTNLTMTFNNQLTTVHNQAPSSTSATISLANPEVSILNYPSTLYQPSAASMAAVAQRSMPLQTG

SMILES | IC50
O=C1NC(Nc2ccccc2)=N/C1=C\c1ccc2nn[nH]c2c1 [Example 56, (Z)-5-((1H-benzo[d][1,2,3]triazol-6-yl)methylene)-2-(phenylamino)-3,5-dihydro-4H-imidazol-4-one] | 1 to 10 µM
Cn1ncc2ccc(/C=C3\N=C(Nc4ccccc4)NC3=O)cc21 [Example 79, 5-((1-methyl-1H-indazol-6-yl)methylene)-2-(phenylamino)-3,5-dihydro-4H-imidazol-4-one] | > 10 µM
O=C1NC(NC23CC4CC(CC(C4)C2)C3)=N/C1=C\c1ccc2scnc2c1 [Example 50, (Z)-2-(adamantan-1-ylamino)-5-(benzo[d]thiazol-5-ylmethylene)-3,5-dihydro-4H-imidazol-4-one] | > 10 µM
O=C(O)CCN(C1=N/C(=C\c2ccc3c(c2)OCO3)C(=O)N1)c1ccccc1 [Example 27, (Z)-3-((4-(benzo[d][1,3]dioxol-5-ylmethylene)-5-oxo-4,5-dihydro-1H-imidazol-2-yl)(phenyl)amino)propanoic acid] | 1 to 10 µM
O=C1NC(Nc2ccccc2)=N/C1=C\c1ccc2nccnc2c1 [Example 16, (Z)-2-(phenylamino)-5-(quinoxalin-6-ylmethylene)-3,5-dihydro-4H-imidazol-4-one] | 1 to 10 µM
O=C1NC(NCCN2CCOCC2)=N/C1=C\c1ccc2ncsc2c1 [Example 29, (Z)-5-(benzo[d]thiazol-6-ylmethylene)-2-((2-morpholinoethyl)amino)-3,5-dihydro-4H-imidazol-4-one] | 1 to 10 µM
CN(C1=N/C(=C\c2ccc3c(c2)OCO3)C(=O)N1)c1cccnc1 [Example 18, (Z)-5-(benzo[d][1,3]dioxol-5-ylmethylene)-2-(methyl(pyridin-3-yl)amino)-3,5-dihydro-4H-imidazol-4-one] | > 10 µM
O=C1NC(Nc2ccc3nc(Nc4ccccc4)sc3c2)=N/C1=C\c1ccc2ncsc2c1 [Example 104, (Z)-5-(benzo[d]thiazol-6-ylmethylene)-2-((2-(phenylamino)benzo[d]thiazol-6-yl)amino)-3,5-dihydro-4H-imidazol-4-one] | 1 to 10 µM
Cn1ncc2ccc(/C=C3\N=C(Nc4ccc5ncsc5c4)NC3=O)cc21 [Example 80, (Z)-2-(benzo[d]thiazol-6-ylamino)-5-((1-methyl-1H-indazol-6-yl)methylene)-3,5-dihydro-4H-imidazol-4-one] | > 10 µM

Other lines, results leading:

IC50 | SMILES
1 to 10 µM | CN(Cc1ccccc1)C1=N/C(=C\c2ccc3ncsc3c2)C(=O)N1 [Example 28, (Z)-5-(benzo[d]thiazol-6-ylmethylene)-2-(benzyl(methyl)amino)-3,5-dihydro-4H-imidazol-4-one]
0.1 to 1 µM | CN(C1=N/C(=C\c2ccc3ncsc3c2)C(=O)N1)c1ccc(Cl)cc1 [Example 24, (Z)-5-(benzo[d]thiazol-6-ylmethylene)-2-((4-chlorophenyl)(methyl)amino)-3,5-dihydro-4H-imidazol-4-one]
< 0.1 µM | O=C1NC(Nc2ccc3[nH]ccc3c2)=N/C1=C\c1ccc2ncsc2c1 [Example 69, (Z)-2-((1H-indol-5-yl)amino)-5-(benzo[d]thiazol-6-ylmethylene)-3,5-dihydro-4H-imidazol-4-one]
> 10 µM | CN(CCN1CCOCC1)C1=N/C(=C\c2ccc3ncsc3c2)C(=O)N1 [Example 32, (Z)-5-(benzo[d]thiazol-6-ylmethylene)-2-(methyl(2-morpholinoethyl)amino)-3,5-dihydro-4H-imidazol-4-one]
0.1 to 1 µM | O=C1NC(NCc2ccccc2)=N/C1=C\c1ccc2ncsc2c1 [Example 31, (Z)-5-(benzo[d]thiazol-6-ylmethylene)-2-(benzylamino)-3,5-dihydro-4H-imidazol-4-one]
0.1 to 1 µM | Cn1cnc2cc(NC3=N/C(=C\c4ccc5ncsc5c4)C(=O)N3)ccc21 [Example 61, (Z)-5-(benzo[d]thiazol-6-ylmethylene)-2-((1-methyl-1H-benzo[d]imidazol-5-yl)amino)-3,5-dihydro-4H-imidazol-4-one]
